According to ChEMBL document CHEMBL1145390, “Synthesis and preliminary biological characterization of new semisynthetic derivatives of ramoplanin” (J Med Chem, 2007):
Values after ≈ are worked out from the molar mass of the structure shown. Numbered stars: 1 amine (or outer) side, 2 acyl side, 3 side chain; on linkers, the order of the positions; unused ones are H or OH. Bridge positions count the residues as written; N and C are the ends. Square brackets hold non-standard residues; d marks the D form. Peptide text beside a SMILES is read from it. * marks the point of attachment. Hpg(αMan(1-2)αMan) = N[C@H](C(=O)O)c1ccc(O[C@H]2O[C@H](CO)[C@@H](O)[C@H](O)[C@@H]2O[C@H]2O[C@H](CO)[C@@H](O)[C@H](O)[C@@H]2O)cc1; Octa(2Z,4E)dienoyl(7-Me) = CC(C)C/C=C/C=C\C(=O)*; X1 = NC(=O)[C@@H](O[*:3])[C@H](N[*:1])C(=O)[*:2]; Hpg(3-Cl) = N[C@H](C(=O)O)c1ccc(O)c(Cl)c1; d(aThr) = C[C@@H](O)[C@@H](N)C(=O)O; dHpg = N[C@@H](C(=O)O)c1ccc(O)cc1; Hpg = N[C@H](C(=O)O)c1ccc(O)cc1; aThr = C[C@H](O)[C@H](N)C(=O)O; dOrn = NCCC[C@@H](N)C(=O)O

Columns and labels:
Enterococcus faecalis [1] = test: Antibacterial activity against Enterococcus faecalis after 24 hrs by broth microdilution method; format: functional; conditions: read-out: MIC
Staphylococcus aureus [2] = test: Antibacterial activity against Staphylococcus aureus Smith after 24 hrs by broth microdilution method; format: functional; conditions: read-out: MIC
Staphylococcus aureus [3] = test: Antibacterial activity against methicillin-resistant Staphylococcus aureus clinical isolate after 24 hrs by broth microdilution method; format: functional; conditions: read-out: MIC
Staphylococcus aureus [4] = test: Antibacterial activity against methicillin-resistant and vancomycin-intermediate resistant Staphylococcus aureus clinical isolate after 24 hrs by broth microdilution method; format: functional; conditions: read-out: MIC
Staphylococcus aureus [5] = test: Antibacterial activity against vancomycin-intermediate resistant Staphylococcus aureus clinical isolate after 24 hrs by broth microdilution method; format: functional
Streptococcus pyogenes = test: Antibacterial activity against Streptococcus pyogenes C203 after 24 hrs by broth microdilution method; format: functional; conditions: C203, 24 h, read-out: MIC
Enterococcus faecium [6] = test: Antibacterial activity against Enterococcus faecium after 24 hrs by broth microdilution method; format: functional; conditions: read-out: MIC
Escherichia coli = test: Antibacterial activity against Escherichia coli SKF-12140 after 24 hrs by broth microdilution method; format: functional; conditions: read-out: MIC
Candida albicans = test: Antifungal activity against Candida albicans SKF-2270 after 24 hrs by broth microdilution method; format: functional; conditions: read-out: MIC
[7] = Toxicity assessed as hemolysis in erythrocytes at 180 mg/L; format: cell-based, Erythrocyte; conditions: human, erythrocytes; read-out: Activity
[8] = Toxicity assessed as hemolysis in erythrocytes at 90 mg/L; format: cell-based, Erythrocyte; conditions: human, erythrocytes; read-out: Activity
[9] = Toxicity assessed as hemolysis in erythrocytes at 100 mg/L; format: cell-based, Erythrocyte; conditions: human, read-out: Activity
Enterococcus faecalis [10] = test: Antibacterial activity against vancomycin A-resistant Enterococcus faecalis after 24 hrs by broth microdilution method; format: functional; conditions: read-out: MIC
Enterococcus faecium [11] = test: Antibacterial activity against vancomycin A-resistant Enterococcus faecium clinical isolate after 24 hrs by broth microdilution method; format: functional; conditions: read-out: MIC
Staphylococcus aureus [12] = test: Antibacterial activity against vancomycin-intermediate resistant Staphylococcus aureus clinical isolate in presence of 30% bovine serum after 24 hrs by broth microdilution method; format: functional
Staphylococcus aureus [13] = test: Antibacterial activity against Staphylococcus aureus Smith in presence of 30% bovine serum after 24 hrs by broth microdilution method; format: functional
Enterococcus faecalis [14] = test: Antibacterial activity against vancomycin-resistant Enterococcus faecalis in presence of 30% bovine serum after 24 hrs by broth microdilution method; format: functional
Enterococcus faecium [15] = test: Antibacterial activity against vancomycin A-resistant Enterococcus faecium clinical isolate in presence of 30% bovine serum after 24 hrs by broth microdilution method; format: functional

Row | SMILES | MIC (Enterococcus faecalis [1]) | MIC (Staphylococcus aureus [2]) | MIC (Staphylococcus aureus [3]) | MIC (Staphylococcus aureus [4]) | MIC (Staphylococcus aureus [5]) | MIC (Streptococcus pyogenes) | MIC (Enterococcus faecium [6]) | MIC (Escherichia coli) | MIC (Candida albicans) | hemolysis at 180 mg/L [7] | hemolysis at 90 mg/L [8] | hemolysis at 100 mg/L [9] | MIC (Enterococcus faecalis [10]) | MIC (Enterococcus faecium [11]) | MIC (Staphylococcus aureus [12]) | MIC (Staphylococcus aureus [13]) | MIC (Enterococcus faecalis [14]) | MIC (Enterococcus faecium [15])
1 | CC(C)C/C=C/C=C\C(=O)N[C@@H](CC(N)=O)C(=O)N[C@@H]1C(=O)N[C@H](c2ccc(O)cc2)C(=O)N[C@H](CCCN)C(=O)N[C@H]([C@@H](C)O)C(=O)N[C@@H](c2ccc(O)cc2)C(=O)N[C@H](c2ccc(O)cc2)C(=O)N[C@@H]([C@H](C)O)C(=O)N[C@@H](Cc2ccccc2)C(=O)N[C@H](CCCN)C(=O)N[C@@H](c2ccc(O[C@H]3O[C@H](CO)[C@@H](O)[C@H](O)[C@@H]3O[C@H]3O[C@H](CO)[C@@H](O)[C@H](O)[C@@H]3O)cc2)C(=O)N[C@H]([C@@H](C)O)C(=O)N[C@@H](c2ccc(O)cc2)C(=O)NCC(=O)N[C@@H](CC(C)C)C(=O)N[C@H](C)C(=O)N[C@@H](c2ccc(O)c(Cl)c2)C(=O)O[C@@H]1C(N)=O [RAMOPLANIN A2] ({Octa(2Z,4E)dienoyl(7-Me)}-N[X1][dHpg][dOrn][d(aThr)][Hpg][dHpg][aThr]F[dOrn][Hpg(αMan(1-2)αMan)][d(aThr)][Hpg]GL[dA][Hpg(3-Cl)]; ester 2-C) | < 0.03 µg/mL | < 0.03 µg/mL | 0.06 µg/mL (≈ 0.0235 µM) | 1 µg/mL (≈ 0.392 µM) | 0.25 µg/mL (≈ 0.0979 µM) | < 0.03 µg/mL | < 0.03 µg/mL | < 32 µg/mL | < 32 µg/mL | 79% | 81% | 87% |  |  |  |  |  | 
2 | CCc1ccccc1CC(=O)N[C@@H](CC(N)=O)C(=O)N[C@@H]1C(=O)N[C@H](c2ccc(O)cc2)C(=O)N[C@H](CCCN)C(=O)N[C@H]([C@@H](C)O)C(=O)N[C@@H](c2ccc(O)cc2)C(=O)N[C@H](c2ccc(O)cc2)C(=O)N[C@@H]([C@H](C)O)C(=O)N[C@@H](Cc2ccccc2)C(=O)N[C@H](CCCN)C(=O)N[C@@H](c2ccc(O[C@H]3O[C@H](CO)[C@@H](O)[C@H](O)[C@@H]3O[C@H]3O[C@H](CO)[C@@H](O)[C@H](O)[C@@H]3O)cc2)C(=O)N[C@H]([C@@H](C)O)C(=O)N[C@@H](c2ccc(O)cc2)C(=O)NCC(=O)N[C@@H](CC(C)C)C(=O)N[C@H](C)C(=O)N[C@@H](c2ccc(O)c(Cl)c2)C(=O)O[C@@H]1C(N)=O | 0.5 µg/mL (≈ 0.195 µM) | 0.125 µg/mL (≈ 0.0488 µM) | 0.5 µg/mL (≈ 0.195 µM) | 2 µg/mL (≈ 0.78 µM) | 1 µg/mL (≈ 0.39 µM) | ≤ 0.125 µg/mL | ≤ 0.06 µg/mL | > 128 µg/mL | > 128 µg/mL |  |  |  | 0.5 µg/mL (≈ 0.195 µM) | 0.5 µg/mL (≈ 0.195 µM) | 4 µg/mL | 1 µg/mL | 2 µg/mL | 4 µg/mL
3 | CC(C)C[C@@H]1NC(=O)CNC(=O)[C@H](c2ccc(O)cc2)NC(=O)[C@@H]([C@@H](C)O)NC(=O)[C@H](c2ccc(O[C@H]3O[C@H](CO)[C@@H](O)[C@H](O)[C@@H]3O[C@H]3O[C@H](CO)[C@@H](O)[C@H](O)[C@@H]3O)cc2)NC(=O)[C@@H](CCCN)NC(=O)[C@H](Cc2ccccc2)NC(=O)[C@H]([C@@H](C)O)NC(=O)[C@@H](c2ccc(O)cc2)NC(=O)[C@H](c2ccc(O)cc2)NC(=O)[C@@H](C(C)C)NC(=O)[C@@H](CCCN)NC(=O)[C@@H](c2ccc(O)cc2)NC(=O)[C@@H](CNC(=O)[C@H](CC(N)=O)NC(=O)CCCc2ccccc2)[C@@H](C(N)=O)OC(=O)[C@H](c2ccc(O)c(Cl)c2)NC(=O)[C@@H](C)NC1=O | 1 µg/mL (≈ 0.388 µM) | 1 µg/mL (≈ 0.388 µM) | 2 µg/mL (≈ 0.776 µM) | 8 µg/mL (≈ 3.11 µM) | 8 µg/mL (≈ 3.11 µM) | ≤ 0.03 µg/mL | 2 µg/mL (≈ 0.776 µM) | > 32 µg/mL | > 32 µg/mL | 0% | 0% |  | 1 µg/mL (≈ 0.388 µM) | 2 µg/mL (≈ 0.776 µM) |  |  |  | 
4 | CC(C)C[C@@H]1NC(=O)CNC(=O)[C@H](c2ccc(O)cc2)NC(=O)[C@@H]([C@@H](C)O)NC(=O)[C@H](c2ccc(O[C@H]3O[C@H](CO)[C@@H](O)[C@H](O)[C@@H]3O[C@H]3O[C@H](CO)[C@@H](O)[C@H](O)[C@@H]3O)cc2)NC(=O)[C@@H](CCCN)NC(=O)[C@H](Cc2ccccc2)NC(=O)[C@H]([C@@H](C)O)NC(=O)[C@@H](c2ccc(O)cc2)NC(=O)[C@H](c2ccc(O)cc2)NC(=O)[C@@H](C(C)C)NC(=O)[C@@H](CCCN)NC(=O)[C@@H](c2ccc(O)cc2)NC(=O)[C@@H](CNC(=O)[C@H](CC(N)=O)NC(=O)c2ccc(OCc3cccc(Cl)c3)cc2)[C@@H](C(N)=O)OC(=O)[C@H](c2ccc(O)c(Cl)c2)NC(=O)[C@@H](C)NC1=O | 0.5 µg/mL (≈ 0.187 µM) | 1 µg/mL (≈ 0.374 µM) | 2 µg/mL (≈ 0.748 µM) | 8 µg/mL (≈ 2.99 µM) | 8 µg/mL (≈ 2.99 µM) | 0.13 µg/mL (≈ 0.0486 µM) | 0.5 µg/mL (≈ 0.187 µM) | > 32 µg/mL | > 32 µg/mL | 100% | 25% |  | 0.13 µg/mL (≈ 0.0486 µM) | 0.25 µg/mL (≈ 0.0935 µM) |  |  |  | 
5 | CCCCCCCCCCCCCC(=O)N[C@@H](CC(N)=O)C(=O)NC[C@@H]1C(=O)N[C@H](c2ccc(O)cc2)C(=O)N[C@H](CCCN)C(=O)N[C@H](C(C)C)C(=O)N[C@@H](c2ccc(O)cc2)C(=O)N[C@H](c2ccc(O)cc2)C(=O)N[C@@H]([C@@H](C)O)C(=O)N[C@@H](Cc2ccccc2)C(=O)N[C@H](CCCN)C(=O)N[C@@H](c2ccc(O[C@H]3O[C@H](CO)[C@@H](O)[C@H](O)[C@@H]3O[C@H]3O[C@H](CO)[C@@H](O)[C@H](O)[C@@H]3O)cc2)C(=O)N[C@H]([C@@H](C)O)C(=O)N[C@@H](c2ccc(O)cc2)C(=O)NCC(=O)N[C@@H](CC(C)C)C(=O)N[C@H](C)C(=O)N[C@@H](c2ccc(O)c(Cl)c2)C(=O)O[C@@H]1C(N)=O | 4 µg/mL (≈ 1.51 µM) | 16 µg/mL (≈ 6.06 µM) | 16 µg/mL (≈ 6.06 µM) | 32 µg/mL (≈ 12.1 µM) | 32 µg/mL (≈ 12.1 µM) | 4 µg/mL (≈ 1.51 µM) | 8 µg/mL (≈ 3.03 µM) | > 32 µg/mL | > 32 µg/mL | 59% | 2% |  | 4 µg/mL (≈ 1.51 µM) | 4 µg/mL (≈ 1.51 µM) |  |  |  | 
6 | CC(C)C[C@@H]1NC(=O)CNC(=O)[C@H](c2ccc(O)cc2)NC(=O)[C@@H]([C@@H](C)O)NC(=O)[C@H](c2ccc(O[C@H]3O[C@H](CO)[C@@H](O)[C@H](O)[C@@H]3O[C@H]3O[C@H](CO)[C@@H](O)[C@H](O)[C@@H]3O)cc2)NC(=O)[C@@H](CCCN)NC(=O)[C@H](Cc2ccccc2)NC(=O)[C@H]([C@@H](C)O)NC(=O)[C@@H](c2ccc(O)cc2)NC(=O)[C@H](c2ccc(O)cc2)NC(=O)[C@@H](C(C)C)NC(=O)[C@@H](CCCN)NC(=O)[C@@H](c2ccc(O)cc2)NC(=O)[C@@H](CNC(=O)[C@H](CC(N)=O)NC(=O)c2cccc3ccccc23)[C@@H](C(N)=O)OC(=O)[C@H](c2ccc(O)c(Cl)c2)NC(=O)[C@@H](C)NC1=O | 0.5 µg/mL (≈ 0.193 µM) | 1 µg/mL (≈ 0.387 µM) | 2 µg/mL (≈ 0.774 µM) | 8 µg/mL (≈ 3.1 µM) | 8 µg/mL (≈ 3.1 µM) | ≤ 0.03 µg/mL | 1 µg/mL (≈ 0.387 µM) | > 32 µg/mL | > 32 µg/mL | 25% | 14% |  | 0.5 µg/mL (≈ 0.193 µM) | 1 µg/mL (≈ 0.387 µM) |  |  |  | 
7 | CCCCOc1ccc(C(=O)N[C@@H](CC(N)=O)C(=O)NC[C@@H]2C(=O)N[C@H](c3ccc(O)cc3)C(=O)N[C@H](CCCN)C(=O)N[C@H](C(C)C)C(=O)N[C@@H](c3ccc(O)cc3)C(=O)N[C@H](c3ccc(O)cc3)C(=O)N[C@@H]([C@@H](C)O)C(=O)N[C@@H](Cc3ccccc3)C(=O)N[C@H](CCCN)C(=O)N[C@@H](c3ccc(O[C@H]4O[C@H](CO)[C@@H](O)[C@H](O)[C@@H]4O[C@H]4O[C@H](CO)[C@@H](O)[C@H](O)[C@@H]4O)cc3)C(=O)N[C@H]([C@@H](C)O)C(=O)N[C@@H](c3ccc(O)cc3)C(=O)NCC(=O)N[C@@H](CC(C)C)C(=O)N[C@H](C)C(=O)N[C@@H](c3ccc(O)c(Cl)c3)C(=O)O[C@@H]2C(N)=O)cc1 | 0.25 µg/mL (≈ 0.0959 µM) | 0.25 µg/mL (≈ 0.0959 µM) | 0.5 µg/mL (≈ 0.192 µM) | 4 µg/mL (≈ 1.53 µM) | 4 µg/mL (≈ 1.53 µM) | 0.125 µg/mL (≈ 0.048 µM) | 0.25 µg/mL (≈ 0.0959 µM) | > 32 µg/mL | > 32 µg/mL | 5% | 0% |  | 0.25 µg/mL (≈ 0.0959 µM) | 0.25 µg/mL (≈ 0.0959 µM) |  |  |  | 
